Data on five compounds can be found in publication PMC11249646, “Small-Molecule Disruptors of the Interaction between Calcium- and Integrin-Binding Protein 1 and Integrin αIIbβ3 as Novel Antiplatelet Agents” (ACS Pharmacology & Translational Science, 2024).

What all share (assay type): binding
Assay [1] addresses T1, GST-CIB1 : F-scrambled peptide (Homo sapiens, UniProt Q99828).
T1 construct: made in house; host or cells: BL-21 plus RIL cells (E. coli)
T1 sequence (Q99828 1-191): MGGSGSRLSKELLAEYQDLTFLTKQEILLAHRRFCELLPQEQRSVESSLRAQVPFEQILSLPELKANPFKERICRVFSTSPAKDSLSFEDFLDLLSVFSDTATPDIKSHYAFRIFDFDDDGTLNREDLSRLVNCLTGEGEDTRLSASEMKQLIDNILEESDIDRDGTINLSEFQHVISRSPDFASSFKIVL
In words: FP scrambled-peptide counter screen, 384-well format. The note with it: F-scrambled peptide; for 384-well COUNTERSCREEN Confirm?: *: Curve in opposite direction; for pIC50: read-out: 384-well COUNTERSCREEN IC50. For orientation: Counterscreens check selectivity or assay interference.

In assay [2] the target is T2, CIB1 and αIIb interaction (GST-CIB1 : F-αIIb peptide) (Homo sapiens, UniProt Q99828).
T2 construct: made in house; host or cells: BL-21 plus RIL cells (E. coli)
T2 sequence (Q99828 1-191): T1 sequence (Q99828 1-191)
In words: FP assay, 384-well format (screen). The arrangement: 384-well SCREEN Efficacy (%): concentration or dose not given beside the values. To be noted: F-αIIb peptide; for 384-well SCREEN Confirm?: YES/NO; for pIC50: read-out: 384-well SCREEN IC50.

The target of assay [3] is T3, CIB1 and αIIb interaction (CIB1-GST : F-αIIb peptide) (Homo sapiens, UniProt Q99828).
T3 construct: made in house; host or cells: BL-21 plus RIL cells (E. coli)
T3 sequence (Q99828 1-191): T1 sequence (Q99828 1-191)
In words: FP assay, 1536-well qHTS format (primary and confirmatory screen). The note with it: for CONFIRMATORY SCREEN Confirm?: YES/NO call; for CONFIRMATORY SCREEN Efficacy (%) / Efficacy (%): negative = inhibition. Background: In qHTS, concentration-response curves come from the screen itself.

In assay [4] the target is T1, GST-CIB1 : F-scrambled peptide. In words: FP scrambled-peptide counter screen, 1536-well format. The note with it: for COUNTERSCREEN Efficacy (%) / COUNTERSCREEN Confirm? / COUNTERSCREEN Curve Class: scrambled-peptide counterscreen; for COUNTERSCREEN Confirm?: YES/NO call.
[5] abbreviates: confirmatory screen, qHTS curve class, negative sign = inhibitory curve.
Where [6] appears, read: confirmatory screen, read-out: CONFIRMATORY SCREEN IC50.
Where [7] appears, read: qHTS primary screen hits, Table S2.
Where [8] appears, read: qHTS FP screen hits, Table S2, one class per curve where COUNT > 1, negative sign = inhibitory curve.
Setting [9] is: qHTS FP screen hits, Table S2, read-out: IC50.

pIC50: −log10 of the molar value. Where two headings read alike, the source gives them in different places. Some results are limits rather than exact numbers.

In general, pIC50 refers to the negative decadic logarithm of the IC50, by convention in mol/L. Consider `O=C1C=CC(=O)N1c1cccc(Br)c1` [NCGC00373120-01], for which, in assay [1], the “384-well COUNTERSCREEN Efficacy (%)” value was 74%, the “384-well COUNTERSCREEN Confirm?” value is listed as “YES” and the pIC50 was less than 3.92. Moreover, in assay [2], the “384-well SCREEN Efficacy (%)” value came to 42%, the “384-well SCREEN Confirm?” value is listed as “YES” and the pIC50 is 5.00. Moreover, in assay [3] (confirmatory screen), the “CONFIRMATORY SCREEN Confirm?” value was “YES” and the “CONFIRMATORY SCREEN Efficacy (%)” value is recorded as -38%. Moreover, the “CONFIRMATORY SCREEN Curve Class” value in assay [3] (setting [5]) is -1.2. The pIC50 in assay [3] (setting [6]) is 5.05. For the same compound, the “Efficacy (%)” value in assay [3] (setting [7]) is -54%. The “Curve Class” value in assay [3] (qHTS primary screen hits, Table S2, negative sign = inhibitory curve) is given as -1.2. Further, the pIC50 in assay [3] (qHTS primary screen hits, Table S2, read-out: IC50) was 5.15. In addition, in assay [4], the “COUNTERSCREEN Efficacy (%)” value was 14% and the “COUNTERSCREEN Confirm?” value is “YES”. The “COUNTERSCREEN Curve Class” value in assay [4] (qHTS curve class) was 4.
Take `CN1CCCN=C1/C=C/c1cccs1.O=C(O)c1cc2ccccc2c(Cc2c(O)c(C(=O)O)cc3ccccc23)c1O` [NCGC00094552-04]: the “384-well COUNTERSCREEN Efficacy (%)” value in assay [1] is reported as 40%. The “384-well SCREEN Efficacy (%)” value in assay [2] came to 24%. In assay [3] (confirmatory screen), the “CONFIRMATORY SCREEN Confirm?” value is “YES” and the “CONFIRMATORY SCREEN Efficacy (%)” value is listed as -39%. For the same compound, in assay [3] (setting [5]), the “CONFIRMATORY SCREEN Curve Class” value is -2.4. In addition, the “Efficacy (%)” value in assay [3] (setting [7]) is listed as -25%. Also, the “Curve Class” value in assay [3] (qHTS primary screen hits, Table S2, negative sign = inhibitory curve, several classes where COUNT > 1) is -2.4. In assay [4], the “COUNTERSCREEN Efficacy (%)” value was 0% and the “COUNTERSCREEN Confirm?” value was “YES”. Also, the “COUNTERSCREEN Curve Class” value in assay [4] (qHTS curve class) was 4.
For the compound `Cc1ccc(S(=O)(=O)Nc2cnccc2C(=O)Nc2nc(-c3ccc4c(c3)CCCC4)cs2)cc1.O=C(O)C(F)(F)F` [NCGC00318953-01], in assay [1], the “384-well COUNTERSCREEN Efficacy (%)” value is 125% and the pIC50 was 4.45. For the same compound, in assay [2], the “384-well SCREEN Efficacy (%)” value is 20% and the pIC50 was less than 3.92. Besides, in assay [3] (confirmatory screen), the “CONFIRMATORY SCREEN Confirm?” value was “YES” and the “CONFIRMATORY SCREEN Efficacy (%)” value is -70%. For the same compound, the “CONFIRMATORY SCREEN Curve Class” value in assay [3] (setting [5]) is -1.2. In addition, the “Efficacy (%)” value in assay [3] (qHTS FP screen hits, Table S2) was -37%. In addition, in assay [3] (setting [8]), the “Curve Class” value is -1.2. Moreover, the negative logarithm of the IC50 (pIC50) in assay [3] (setting [9]) was 4.70. Besides, in assay [4], the “COUNTERSCREEN Efficacy (%)” value is -23% and the “COUNTERSCREEN Confirm?” value is given as “YES”. Besides, in assay [4] (qHTS curve class), the “COUNTERSCREEN Curve Class” value came to 4.
The term IC50 denotes the concentration at which inhibition is half-maximal. Turning to `Cc1cc2c(C(C)C)c(O)c(O)c(C=O)c2c(O)c1-c1c(C)cc2c(C(C)C)c(O)c(O)c(C=O)c2c1O` [NCGC00261532-01], in assay [1], the “384-well COUNTERSCREEN Efficacy (%)” value was 60%, the “384-well COUNTERSCREEN Confirm?” value is listed as “YES” and the negative-log IC50 (pIC50) was 4.48. In assay [2], the “384-well SCREEN Efficacy (%)” value is 90%, the “384-well SCREEN Confirm?” value is given as “YES” and the pIC50 is 5.57. In addition, the “Efficacy (%) (confirmatory screen)” value in assay [3] (confirmatory screen) is -70%. Also, the “Confirm? (confirmatory screen)” value in assay [3] (confirmatory screen, YES/NO) is reported as “YES”. Also, in assay [3] (setting [5]), the “Curve Class (confirmatory screen)” value is reported as -1.4. Further, the IC50 in assay [3] (confirmatory screen, read-out: IC50 [μM] (confirmatory screen)) was found to be 2.8 µM. Also, the “Efficacy (%) (counterscreen)” value in assay [4] (counterscreen) is on record as -63%. In addition, the “Curve Class (counterscreen)” value in assay [4] (counterscreen, qHTS curve class, negative sign = inhibitory curve) is -1.2. Besides, the IC50 in assay [4] (counterscreen, read-out: IC50 [μM] (counterscreen)) stood at 7.1 µM.
`Cn1sc(=O)n(Cc2ccccc2)c1=O` [NCGC00165913-03]: in assay [1], the “384-well COUNTERSCREEN Efficacy (%)” value is reported as -20%, the “384-well COUNTERSCREEN Confirm?” value is recorded as “YES” and the pIC50 is less than 3.92. For the same compound, in assay [2], the “384-well SCREEN Efficacy (%)” value worked out at 90%, the “384-well SCREEN Confirm?” value is on record as “YES” and the pIC50 is 5.77. For the same compound, in assay [3] (confirmatory screen), the “CONFIRMATORY SCREEN Confirm?” value is recorded as “YES” and the “CONFIRMATORY SCREEN Efficacy (%)” value is reported as -81%. Besides, in assay [3] (setting [5]), the “CONFIRMATORY SCREEN Curve Class” value is on record as -1.2. The pIC50 in assay [3] (setting [6]) is 5.10. Also, the “Efficacy (%)” value in assay [3] (qHTS FP screen hits, Table S2) was -79%. Besides, the “Curve Class” value in assay [3] (setting [8]) was -1.2. In assay [3] (setting [9]), the pIC50 is 5.05. Further, in assay [4], the “COUNTERSCREEN Efficacy (%)” value is on record as -22% and the “COUNTERSCREEN Confirm?” value is given as “YES”. Moreover, the “COUNTERSCREEN Curve Class” value in assay [4] (qHTS curve class) worked out at 4.
